Consider nine compounds from patent publication US20080160033A1, “Novel Screening Method” (Takeda Pharmaceutical Company Limited, priority 2003, published 2008).

In one series the target is T1, mouse 14273 (Mus musculus, UniProt Q7TMA4).
T1 construct: expressed in transfected cells; host or cells: CHO-K1, transient transfection (Lipofectamine) with the pAKKO-111-based expression vector
T1 sequence (Q7TMA4 1-361): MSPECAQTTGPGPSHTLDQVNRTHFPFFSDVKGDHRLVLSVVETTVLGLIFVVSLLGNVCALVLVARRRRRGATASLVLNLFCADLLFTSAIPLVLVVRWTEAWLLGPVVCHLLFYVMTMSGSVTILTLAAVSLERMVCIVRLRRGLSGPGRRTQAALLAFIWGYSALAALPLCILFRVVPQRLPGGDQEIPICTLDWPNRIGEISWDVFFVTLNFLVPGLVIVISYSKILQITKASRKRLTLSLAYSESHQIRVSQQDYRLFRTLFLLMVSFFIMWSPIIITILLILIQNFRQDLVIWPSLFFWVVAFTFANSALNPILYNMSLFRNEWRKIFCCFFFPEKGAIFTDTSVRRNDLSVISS
The series is described as follows: Change in intracellular calcium level (FLIPR) in CHO-K1 cells transiently expressing mouse 14273. The format is cell-based. Particulars: 30 μM fatty acid (FIG. 1-5); mouse 14273-expressed CHO-K1 cells; no response in expression vector alone-transfected control cells. The procedure:
(§1) CHO-K1 cells were incubated in Ham F-12 medium (Invitrogen) containing […] calf fetal serum, unless otherwise indicated. On the day before transfection, the cells were plated in 4.5×10^5/10 cm^2 and incubated at 37° C., for 15 hours or longer in a CO2 incubator adjusted to a 5% CO2 concentration. Transfection was carried out by a modification of the procedure described in the protocol attached to the reagent, using Lipofectamine reagent (Invitrogen). Where a 6-well plate was used for the incubator, the procedure was performed as follows. First, 2 tubes each having a 1.5 ml volume were prepared and 100 μl each of Opti-MEM-1 medium (Invitrogen) were dispensed in each tube. Next, after 1 μg of the expression vector was charged in one tube and in another tube 6 μl of the Lipofectamine reagent was charged, they were mixed and settled at room temperature for 20 minutes. A mixture for transfection of The resulting solution was added with 800 μl of Opti-MEM-1 medium and the resulting mixture for transfection was added to CHO-K1 cells previously washed with Opti-MEM-1 medium, followed by incubation in a CO2 incubator for 6 hours. The cells after incubation were rinsed with PBS (Invitrogen), then scraped off using 0.05% trypsin-EDTA solution (Invitrogen) and recovered by centrifugation. The cells collected were counted and diluted to contain 5×10^4 cells per 100 μl of the medium. The dilution was dispensed in a black walled 96-well plate (Costar) at a density of 100 μl/well, followed by incubation overnight in a CO2 incubator. Various samples were added to the CHO-K1 cells, which transiently expressed the receptor by the transfection procedure described above, and a change in intracellular calcium level was measured using FLIPR (Molecular Device). To measure the change in intracellular calcium level on FILPR; the cells were pretreated as follows. First, an assay buffer was prepared to add fluorescent dye Fluo3-AM (DOJIN) to the cells, or to wash the cells immediately before the FLIPR assay. A solution was prepared by adding 20 ml of 1M HEPES (pH 7.4) (DOJIN) to 1000 ml of HBSS (Invitrogen) (hereinafter, HBSS/HEPES solution). After 710 mg of probenecid (Sigma) was dissolved in 5 nil of 1N NaOH, 5 ml of the HBSS/HEPES solution was further added to the solution and the two solutions were mixed with each other. Then, 10 ml of the solution mixture was added to the HBSS/HEPES solution and the resulting solution was used as the assay buffer. Next, 50 μg of Fluo3-AM was added to 21 μl of DMSO (DOJIN) and an equal volume of 20% pluronic acid (Molecular Probes) was added thereto, followed by mixing them. […] Following the pretreatment above, a change in intracellular calcium level was determined with FLIPR, after various test samples were added.
A general note: A change in cytosolic calcium serves as a functional read-out for many receptors and channels.

In the next series the test system is 3T3-L1 cells. In words: Lipolysis (glycerol production) in 3T3-L1 adipose differentiation cells stimulated with isoproterenol. The format is cell-based, mouse. Particulars: 1×10^−9 M isoproterenol plus fatty acid, 2 hours; differentiated 3T3-L1 cells. The method, then: Effects on lipolysis were examined using mouse fibroblast cell line 3T3-L1 cells capable of differentiating into adipocytes. […] The 3T3-L1 cells were plated on a plate and incubated to become confluent. The cells were then treated for 48 hours in the aforesaid medium containing 10 μg/ml of insulin, 0.5 mM 3-isobutyl-1-methylxanthine (IBMX), 2.5 μM dexamethasone to induce differentiation into adipose. Incubation was continued for further 11 days. After the 3T3-L1 cells were differentiated into adipose, a change in the amount of glycerol produced by lipolysis was assayed. After the cells were washed with modified Krebs-Ringer buffer, 1×10^−9 M isoproterenol was added to the cell and simultaneously a fatty acid was added thereto, followed by treatment for 2 hours. The supernatant was then recovered. The glycerol content in the supernatant was determined using Free Glycerol Determination Kit (Sigma).

Series [1] has as its target T2, human 14273 (Homo sapiens, UniProt Q5NUL3).
T2 construct: expressed in transfected cells; host or cells: CHO-K1, transient transfection (Lipofectamine) with the pAKKO-111-based expression vector
T2 sequence (Q5NUL3 1-361): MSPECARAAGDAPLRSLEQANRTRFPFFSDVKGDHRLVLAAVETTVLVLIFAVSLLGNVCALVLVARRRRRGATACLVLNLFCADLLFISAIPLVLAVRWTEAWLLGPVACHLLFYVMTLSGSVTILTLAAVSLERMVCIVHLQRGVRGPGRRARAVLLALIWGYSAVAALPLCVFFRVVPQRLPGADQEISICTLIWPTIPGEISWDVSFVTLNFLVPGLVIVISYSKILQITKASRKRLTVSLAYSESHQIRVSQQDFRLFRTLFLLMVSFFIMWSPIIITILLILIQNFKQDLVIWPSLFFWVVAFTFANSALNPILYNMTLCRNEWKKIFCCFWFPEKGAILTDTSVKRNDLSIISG
The series is described as follows: Change in intracellular calcium level (FLIPR) in CHO-K1 cells transiently expressing human 14273. In kind it is cell-based. Particulars: 30 μM fatty acid (FIG. 1-5); human 14273-expressed CHO-K1 cells; no response in expression vector alone-transfected control cells. The procedure: as §1

The target in series [2] is T2, human 14273. In words: Effects of fatty acids on cAMP production in human 14273-expressed CHO cells. The format is cell-based. Particulars: in the presence of forskolin (2 μM); fatty acid 30 μM (FIG. 9); not observed in control CHO cells without human 14273. The procedure:
After the reaction, the cells were lysed in accordance with the formulation of cAMP Screen (ABI) and the intracellular cAMP level was assayed.
(Cyclic AMP is a second messenger, typically raised through Gs and lowered through Gi signalling.)

The test system of a further series is AtT-20 cells. The series is described as follows: Suppression of CRF-induced ACTH secretion from AtT-20 cells. Particulars: 10 nM CRF, 90 minutes; fatty acid with BSA.
In series [3] the test system is mouse 14273-GFP fused protein. In words: Suppression of expression of mouse 14273-GFP fused protein by siRNA in CHO cells (enzyme immunoassay). The format is cell-based. Conditions: siRNA 20 nM cotransfected to CHO cells, incubation for a day; absorbance at 450 nm. The procedure: After the culture supernatant was discarded and the cells were washed with HBSS (Invitrogen), the cells were fixed with 0.01% glutaraldehyde (Wako Pure Chemical) for 5 minutes, followed by blocking with 2% BSA-containing PBS (Takara Shuzo). Anti-GFP monoclonal antibody 3E6 (Nippon Gene) diluted to 500-fold was added to the cells. After incubation at room temperature for 2 hours, the cells were washed and HRP-labeled anti-mouse IgG antibody (ICN) diluted to 500-fold was added thereto, followed by incubation at room temperature for 2 hours. After washing, TMB microwell peroxidase substrate (Funakoshi) was added to the cells. After incubation for 30 minutes, sulfuric acid was added to discontinue the color-forming reaction and absorbance was measured at 450 nm.

`CCCCC/C=C\C/C=C\C/C=C\CCCCC(=O)O` [γ-linolenic acid]: the “change in intracellular calcium level” value at mouse 14273 and on human 14273 [1] was “specifically responded (increased the intracellular calcium level)” each time. For the same compound, in the series on 3T3-L1 cells, the “glycerol production increased by isoproterenol stimulation (lipolysis)” value is “resulted in lowering the glycerol production”. At human 14273 [2], the “cAMP production suppressing activity” value is “showed the cAMP production suppressing activity”. In addition, the “suppression of ACTH secretion induced by CRF” value (shortened to “suppression … by CRF”) with AtT-20 cells is given as “suppression of ACTH secretion induced by CRF was observed more significantly”.

Regarding `CCCC(=O)O` [butyric acid], at human 14273 [2], the “cAMP production suppressing activity” value is “did not show any suppressing activity”. Besides, in the series with AtT-20 cells, the “suppression … by CRF” value is “did not show any significant suppression”.

Consider `CCCCC/C=C\C/C=C\CCCCCCCC(=O)O` [linoleic acid], for which the “change in intracellular calcium level” value at mouse 14273 and at human 14273 [1] was “specifically responded (increased the intracellular calcium level)” throughout. In addition, the “cAMP production suppressing activity” value at human 14273 [2] is “showed the cAMP production suppressing activity”.

With `CCCCCC/C=C\CCCCCCCC(=O)O` [Palmitoleic acid], the “change in intracellular calcium level” value on mouse 14273 and at human 14273 [1] was “specifically responded (increased the intracellular calcium level)” throughout.

For the compound `CCCCCCCC/C=C\CCCCCCCC(=O)O` [oleic acid], at human 14273 [2], the “cAMP production suppressing activity” value is recorded as “showed the cAMP production suppressing activity”.

For `CC/C=C\C/C=C\C/C=C\CCCCCCCC(=O)O` [α-linoleic acid], the “suppression … by CRF” value in the series with AtT-20 cells is recorded as “suppression of ACTH secretion induced by CRF was observed more significantly”.

For the compound “m14i561: mouse 14273-specific siRNA; sense strand SEQ ID NO: 21, antisense strand SEQ ID NO: 22 (sense GGACCAGGAAAUUCCGAUUNN; antisense NNCCUGGUCCUUUAAGGCUAA; chemistry not fully specified; one strand is listed 3' to 5')”, the “suppression of the expression level of pAKKO-14273-GFP” value in series [3] turned out to be 97%.

Consider `CCCCC/C=C\C/C=C\CCCCCCCC(=O)OC` [methyl linoleate], for which the “glycerol production increased by isoproterenol stimulation (lipolysis)” value in the series with 3T3-L1 cells is listed as “such an activity was not observed”.

Consider `CCCCC/C=C\C/C=C\C/C=C\C/C=C\CCCC(=O)O` [arachidonic acid], for which the “change in intracellular calcium level” value on mouse 14273 and at human 14273 [1] was “specifically responded (increased the intracellular calcium level)” each time.
